What was measured:
SRA = SRA mRNA expression in HMO6 human microglial cells (qPCR); format: cell-based; details: Rg3-treated HMO6 cells (FIG. 14)
Method: (§1) HMO6 human microglial cell line was kindly provided by Dr. SU Kim (Chung-Ang University, Korea). HMO6 cells were grown in Dulbecco's Modified Eagle's Medium (DMEM) (Hyclone, USA) supplemented with 10% fetal bovine serum, 100 U/ml penicillin, and 100 μg/ml streptomycin (Invitrogen, USA). Cultures were maintained under 5% CO2 at 37° C. in tissue culture flasks. Cells were grown to >90% confluency and subjected to no more than 20 cell passages. Medium was changed every 2-3 days. Subconfluent cells were harvested and seeded at a density of 5×10^5 cells or 5×10^6 cells in poly-L-lysine-coated 35-mm or 60-mm culture plates. […]
(§2) Total RNA extracts from HMO6 cells or perfused brain tissue were prepared using the Trizol method (Invitrogen). cDNA was synthesized from RNA by reverse transcription of 1 μg total RNA using the Improm-II reverse transcription system (Promega, Wis., USA) and oligo dT primers in a total volume of 20 μl. […] Relative sample expression levels were calculated using Rotor-Gene 6000 Series Software 1.7 and were expressed relative to β-actin for mice or glyceraldehyde 3-phosphate dehydrogenase for HMO6 cells and corrected for between-run variability. Data for the experimental samples are expressed as a percentage of the internal control gene. […]

NEP = NEP mRNA expression in HMO6 human microglial cells (qPCR); format: cell-based
Method: as §1, §2

clathrin [1] = experiment: Clathrin mRNA expression in HMO6 human microglial cells (qPCR); format: cell-based; details: Aβ42 (5 μM) and/or Rg3 (2.5 or 5 μg/ml), 24 h (FIG. 15C)
Method: FIG. 15 is a graph showing a change in the expression of caveolin-1, caveolin-2, clathrin, neprilysin (NEP), insulin-degrading enzyme (IDE) according to treating Aβ and/or ginsenoside Rg3 to HMO6 human microglial cells. HMO6 cells were plated on 35 mm cell culture plates or chamber slides and Aβ42 (5 μM) and/or Rg3 (2.5 or 5 μg/ml) were treated for 24 h. Then, the mRNA expression was determined by quantitative RT-PCR. The expression of caveolin (A-B), clathrin (C) which are endocytosis-related genes and NEP (D) and IDE (E) which are genes encoding Aβ-degrading enzymes were compared depending on the presence or absence of Rg3/Aβ42. The results are shown as mean±SD. * P<0.05, ** P<0.01, *** P<0.001. […]
as §2

caveolin1 = experiment: Caveolin1 immunocytochemistry in HMO6 cells; format: cell-based, human; details: Rg3 5 μg/ml, 24 h, immunocytochemistry (FIG. 20)
Method: (§3) FIG. 20 is a fluorescence microscopic image showing a result of immunocytochemical analysis investigating the expression of caveolin and clathrin in HMO6 cells treated with or without Rg3. HMO6 cells were treated with Rg3 (5 μg/ml) for 24 h after plated on chamber slides and then the cells were stained with primary antibodies binding specifically to caveolin and clathrin, respectively and counterstained with DAPI. The length of scale bar represents 10 μm.
(§4) The present inventors investigated whether ginsenosides can induce the expression of SRA, clathrin, caveolin 1, NEP or IDE and the differentiation of neurons actually through immunocytochemical analysis (ICC) and microscopic observations. Specifically, Cultured HMO6 cells were fixed in 4% paraformaldehyde (in 1×PBS) for 15 min, washed twice with 1×PBS supplemented with 100 mM glycine for 5 min, and incubated with permeabilization buffer consisting of 0.1% Triton X-100 (Sigma-Aldrich, USA) in 1×PBS for 30 min at room temperature. Blocking was performed with 1% bovine serum albumin (BSA, Sigma-Aldrich, USA) for 30 min at room temperature. Then, SRA, clathrin, caveolin1, NEP, or IDE mouse monoclonal antibody (1:200; Santa Cruz Biotechnology, USA) was added to 1% BSA in PBS with Tween 20 (PBST) and incubated for 2 h at room temperature. […]

clathrin [2] = experiment: Clathrin immunocytochemistry in HMO6 cells; format: cell-based, human; details: Rg3 5 μg/ml, 24 h, immunocytochemistry (FIG. 20)
Method: as §3, §4

HMO6 cells = experiment: Uptake of FITC-labeled Aβ42 in HMO6 cells (live-cell imaging); format: cell-based, human; details: HMO6 cells pre-treated with Rg3 5 μg/ml for 20 h, after 30 min, persisted for 6 h (FIG. 21)
Method: The stably transfected HM06.hSRA cells prepared in Example 5-5 were plated into 96-well plates at 5000 cells/well to analyze Aβ uptake. […] […] Fluorescence intensities represented the number of cells (count/mm^2) over the time to quantify cells with FITC-labeled Aβ42 peptides. Aβ42 uptake was calculated using the following equation (FIG. 21):

Structure (SMILES): CC(C)=CCC[C@](C)(O)[C@H]1CC[C@]2(C)[C@@H]1[C@H](O)C[C@@H]1[C@@]3(C)CC[C@H](O[C@@H]4O[C@H](CO)[C@@H](O)[C@H](O)[C@H]4O[C@@H]4O[C@H](CO)[C@@H](O)[C@H](O)[C@H]4O)C(C)(C)[C@@H]3CC[C@]12C [ginsenoside Rg3]
- SRA mRNA expression (SRA): dose-dependently increased
- NEP mRNA (NEP; HMO6 cells, Aβ42 (5 μM) and/or Rg3 (2.5 or 5 μg/ml), 24 h (FIG. 15D)): increased significantly
- NEP mRNA expression (NEP; Rg3-treated HMO6 cells (FIG. 14)): dose-dependently increased
- clathrin-mediated Aβ42 endocytosis (clathrin mRNA) (clathrin [1]): promoted Aβ42 uptake into HMO6 cells via a caveolin1 and clathrin-mediated endocytic mechanism
- caveolin1 expression (caveolin1): highly expressed
- clathrin expression (clathrin [2]): highly expressed
- Aβ42 uptake (HMO6 cells): increased Aβ42 uptake significantly
